From patent US20130184222A1, “[…] ACTIVE COMPOSITIONS AND THEIR METHODS OF USE” (AGIOS PHARMACEUTICALS, INC, priority 2010, published 2013)
Read-outs that look alike come from different tables or passages of the source.

Legend:
IDH1 R132H = IDH1 R132H (Homo sapiens, UniProt O75874, R132H); assay: In vitro assay for IDH1 R132H inhibitors (NADPH/aKG, resazurin detection); assay type: biochemical; details: 0.2 μg/ml IDH1 R132H, 50 minutes at room temperature
Procedure: Assays were conducted in a volume of 76 μl assay buffer (150 mM NaCl, 10 mM MgCl2, 20 mM Tris pH 7.5, 0.03% bovine serum albumin) as follows in a standard 384-well plate: To 25 ul of substrate mix (8 uM NADPH, 2 mM aKG), 1 μl of test compound was added in DMSO. The plate was centrifuged briefly, and then 25 μl of enzyme mix was added (0.2 μg/ml IDH1 R132H) followed by a brief centrifugation and shake at 100 RPM. The reaction was incubated for 50 minutes at room temperature, then 25 μl of detection mix (30 μM resazurin, […]) was added and the mixture further incubated for 5 minutes at room temperature. The conversion of resazurin to resorufin was detected by fluorescent spectroscopy at Ex544 Em590 c/o 590.
The compounds of Formula I set forth in Table 1 and the compounds set forth in Table 2 were tested in this assay and the results set forth below in Table 4A and 4B.

U87MG cells = assay: Cellular assay: inhibition of 2-HG production in U87MG cells (LC-MS, 48 hours); assay type: cell-based; details: Homo sapiens, U-87 MG, 2-HG in media by LC-MS
Procedure: Cells (HT1080 or U87MG) were grown in T125 flasks in DMEM containing 10% FBS, 1× penicillin/streptomycin and 500 ug/mL G418 (present in U87MG cells only). They were harvested by trypsin and seeded into 96 well white bottom plates at a density of 5000 cell/well in 100 ul/well in DMEM with 10% FBS. No cells were placed in columns 1 and 12. Cells were incubated overnight at 37° C. in 5% CO2. The next day test compounds were made up at 2× the final concentration and 100 ul were added to each cell well. The final concentration of DMSO was 0.2% and the DMSO control wells were plated in row G. The plates were then placed in the incubator for 48 hours. At 48 hours, 100 ul of media was removed from each well and analyzed by LC-MS for 2-HG concentrations. The cell plate was placed back in the incubator for another 24 hours. At 72 hours post compound addition, 10 mL/plate of Promega Cell Titer Glo reagent was thawed and mixed. The cell plate was removed from the incubator and allowed to equilibrate to room temperature. Then 100 ul of Promega Cell Titer Glo reagent was added to each well of media. The cell plate was then placed on an orbital shaker for 10 minutes and then allowed to sit at room temperature for 20 minutes. The plate was then read for luminescence with an integration time of 500 ms.

[1] = Table 4B, read-out: IC50, IDH1 R132H Inhibition
[2] = Table 4A, read-out: IC50 (uM), IDH1 R132H Inhibition

IDH1 R132H, sequence (O75874 whole entry R132H): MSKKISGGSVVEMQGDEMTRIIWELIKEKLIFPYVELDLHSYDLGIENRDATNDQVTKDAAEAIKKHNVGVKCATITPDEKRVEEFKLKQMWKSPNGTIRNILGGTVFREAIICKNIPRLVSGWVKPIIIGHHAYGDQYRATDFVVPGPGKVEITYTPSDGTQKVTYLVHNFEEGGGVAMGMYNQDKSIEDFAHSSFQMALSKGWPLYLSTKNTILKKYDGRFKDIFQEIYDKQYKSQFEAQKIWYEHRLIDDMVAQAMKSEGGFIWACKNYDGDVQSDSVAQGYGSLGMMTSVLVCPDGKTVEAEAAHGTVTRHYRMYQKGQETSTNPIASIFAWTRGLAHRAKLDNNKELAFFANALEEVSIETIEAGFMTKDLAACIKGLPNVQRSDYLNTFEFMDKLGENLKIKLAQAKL

IC50 (IDH1 R132H; [1]) [µM] | IC50 (U87MG cells) [µM] | IC50 (IDH1 R132H; [2]) [µM] | SMILES
0.1 to 1 | 1 to 5 |  | Cc1ccccc1C(C(=O)NC1CCCCC1)N(C(=O)CNCc1cccnc1)c1cccc(F)c1 (centres unmarked) [Compound 174]
0.1 to 1 | 1 to 5 |  | Cc1ccccc1C(C(=O)NC1CCOCC1)N(C(=O)CN1CCCc2ccccc21)c1cccc(F)c1 (centres unmarked) [Compound 179]
0.1 to 1 | > 5 |  | Cc1ccccc1C(C(=O)NC1CCCCC1)N(Cc1cccs1)C(=O)NCc1ccccc1 (centres unmarked) [Compound 388]
0.1 to 1 | 1 to 5 |  | Cc1ccccc1C(C(=O)NC1CCCCC1)N(Cc1cccs1)C(=O)CN(C)c1ccccc1 (centres unmarked) [Compound 182]
≤ 0.1 | 0.25 to 1 |  | Cc1ccccc1C(C(=O)NC1CCCCC1)N(C(=O)Cn1cnc2ccccc21)c1cccc(F)c1 (centres unmarked) [Compound 135]
0.1 to 1 | 1 to 5 |  | Cc1ccccc1C(C(=O)NC1CCCCC1)N(C(=O)CNC1CCCCC1O)c1cccc(F)c1 (centres unmarked) [Compound 180]
0.1 to 1 | 0.25 to 1 |  | Cc1ccccc1C(C(=O)NC1CCCCC1)N(C(=O)CN1Cc2ccccc2C1)c1cccc(F)c1 (centres unmarked) [Compound 188]
0.1 to 1 | 1 to 5 |  | CCC(=O)N1CCCC[C@H]1C(=O)N(c1cccc(F)c1)[C@H](C(=O)NC1CCCCC1)c1ccccc1C [Compound 350]
≤ 0.1 | 0.25 to 1 |  | Cc1ccccc1C(C(=O)NC1CCCCC1)N(C(=O)CN(C)c1ccccc1)c1cccc(F)c1 (centres unmarked) [Compound 161]
0.1 to 1 | 1 to 5 |  | Cc1ccccc1C(C(=O)NC1CCOCC1)N(C(=O)CN(C)c1ccccc1)c1cccc(F)c1 (centres unmarked) [Compound 183]
0.1 to 1 | 1 to 5 |  | Cc1ccccc1C(C(=O)NC1CCCCC1)N(C(=O)CNC1COC1)c1cccc(F)c1 (centres unmarked) [Compound 170]
≤ 0.1 | 0.25 to 1 |  | Cc1ccccc1C(C(=O)NC1CC2CCC1C2)N(C(=O)Cc1cccs1)c1cccc(F)c1 (centres unmarked) [Compound 186]
0.1 to 1 | 0.25 to 1 |  | Cc1ccccc1C(C(=O)NC1CCCCC1)N(C(=O)Cc1cscn1)c1cccc(F)c1 (centres unmarked) [Compound 158]
0.1 to 1 | > 5 |  | Cc1ccccc1C(C(=O)NC1CCCCC1)N(C(=O)COc1cccc(F)c1)c1cccc(F)c1 (centres unmarked) [Compound 189]
0.1 to 1 | 0.25 to 1 |  | Cc1ccccc1C(C(=O)NC1CCC1)N(C(=O)Cc1cccs1)c1cccc(F)c1 (centres unmarked) [Compound 178]
≤ 0.1 | ≤ 0.25 |  | Cc1ccccc1C(C(=O)NC1CCCCC1)N(C(=O)Cc1c[nH]c2ccccc12)c1cccc(F)c1 (centres unmarked) [Compound 126]
1 to 10 | > 5 |  | Cc1ccccc1C(C(=O)NC1CCCCC1)N(Cc1cccs1)C(=O)OCc1ccccc1 (centres unmarked) [Compound 390]
0.1 to 1 | > 5 |  | Cc1ccccc1C(C(=O)NC1CCCCC1)N(C(=O)CSC(=N)N)c1cccc(F)c1 (centres unmarked) [Compound 163]
0.1 to 1 | 1 to 5 |  | Cc1ccccc1C(C(=O)NC1CCCCC1)N(C(=O)CNC1CCOCC1)c1cccc(F)c1 (centres unmarked) [Compound 181]
0.1 to 1 | 1 to 5 |  | Cc1ccccc1C(C(=O)NC1CCCCC1)N(Cc1cccs1)C(=O)CN1Cc2ccccc2C1 (centres unmarked) [Compound 187]

IC50 (IDH1 R132H; [1]) [µM] | IC50 (U87MG cells) [µM] | IC50 (IDH1 R132H; [2]) [µM] | SMILES
 |  | 0.1 to 1 | O=C(NC1CCCCC1)C(c1ccccc1Cl)N(C(=O)c1ccccn1)c1ccccc1 (centres unmarked) [Compound 4]
0.1 to 1 |  |  | COc1ccc(F)c(C(C(=O)NC2CCCCC2)N(C(=O)Cc2cccs2)c2cccc(F)c2)c1 (centres unmarked) [Compound 128]
 |  | 0.1 to 1 | Cc1ccccc1C(C(=O)NC1CCCCC1)N(C(=O)Cc1cccs1)c1ccccc1 (centres unmarked) [Compound 42]
 |  | 0.1 to 1 | Cc1ccccc1C(C(=O)NC1CCCC1)N(C(=O)Cc1cccs1)c1ccccc1F (centres unmarked) [Compound 46]
 |  | 0.1 to 1 | O=C(NC1CCCCC1)C(c1ccc(Cl)cc1)N(C(=O)Cc1cccs1)c1cccc(F)c1 (centres unmarked) [Compound 79]
 |  | ≥ 100 | CC(C)(C(=O)NC1CCCC1)N(C(=O)Cc1cccs1)c1cccc(F)c1 [Compound 21]
0.1 to 1 |  |  | Cc1ccccc1C(C(=O)NC1CCCCC1)N(C(=O)CCl)c1cccc(F)c1 (centres unmarked) [Compound 118]
0.1 to 1 |  |  | Cc1ccccc1[C@@H](C(=O)NC1CCCCC1)N(C(=O)[C@H]1CCCCN1)c1cccc(F)c1 [Compound 337]
0.1 to 1 |  |  | COc1ccccc1C(C(=O)NC1CCCCC1)N(C(=O)Cc1cccs1)c1cccc(F)c1 (centres unmarked) [Compound 116]
0.1 to 1 |  |  | Cc1ccccc1[C@@H](C(=O)NC1CCCCC1)N(C(=O)[C@H]1CCCN1)c1cccc(F)c1 [Compound 376]
 |  | 10 to 100 | Cc1ccccc1C(C(=O)NC1CCCCC1)N(C(=O)Cc1cccs1)C(C)C (centres unmarked) [Compound 41]
 |  | 0.1 to 1 | O=C(NC1CCCC1)C(c1ccccc1)N(C(=O)Cc1cccs1)c1ccccc1 (centres unmarked) [Compound 17]
 |  | 0.1 to 1 | O=C(NC1CCCCC1)C(c1ccccc1Cl)N(C(=O)c1ccccn1)c1cccc(F)c1 (centres unmarked) [Compound 56]
0.1 to 1 |  |  | CNC(=O)N1CCC[C@@H]1C(=O)N(c1cccc(F)c1)[C@H](C(=O)NC1CCCCC1)c1ccccc1C [Compound 375]
 |  | 1 to 10 | CC(C)(C)NC(=O)C(c1ccccc1)N(C(=O)Cc1cccs1)c1ccccc1 (centres unmarked) [Compound 11]
 |  | ≥ 100 | O=C(NC1CCCCC1)C(c1ccc(C(F)(F)F)cc1)N(C(=O)Cc1cccs1)c1cccc(F)c1 (centres unmarked) [Compound 84]
0.1 to 1 |  |  | Cc1ccccc1C(C(=O)NC1CCCCC1)N(C(=O)Cn1ccnc1)c1cccc(F)c1 (centres unmarked) [Compound 156]
 |  | ≤ 0.1 | O=C(NC1CCCCC1)C(c1ccccc1Cl)N(C(=O)Cc1cccs1)c1cccc(F)c1 (centres unmarked) [Compound 31]
0.1 to 1 |  |  | CC(=O)c1cccc(N(C(=O)Cc2cccs2)C(C(=O)NC2CCCCC2)c2ccccc2C)c1 (centres unmarked) [Compound 131]
 |  | ≥ 100 | O=C(Cc1cccs1)N(c1cccc(F)c1)C1(C(=O)NC2CCCC2)CCC1 [Compound 22]

IC50 (IDH1 R132H; [1]) [µM] | IC50 (U87MG cells) [µM] | IC50 (IDH1 R132H; [2]) [µM] | SMILES
0.1 to 1 |  |  | Cc1ccccc1C(C(=O)NC(C)(C)C)N(C(=O)Cc1cccs1)c1cccc(F)c1 (centres unmarked) [Compound 109]
 |  | ≤ 0.1 | Cc1ccccc1C(C(=O)NC1CCCCCC1)N(C(=O)Cc1cccs1)c1cccc(F)c1 (centres unmarked) [Compound 80]
0.1 to 1 |  |  | COC(=O)NCC(=O)N(c1ccc(F)c(F)c1)C(C(=O)NC1CCCCC1)c1ccccc1C (centres unmarked) [Compound 358]
0.1 to 1 |  |  | Cc1ccc(F)c(C(C(=O)NC2CCCCC2)N(C(=O)Cc2cccs2)c2cccc(F)c2)c1 (centres unmarked) [Compound 127]
0.1 to 1 |  |  | Cc1ccccc1C(C(=O)Nc1ccccc1Br)N(C(=O)Cc1cccs1)c1cccc(F)c1 (centres unmarked) [Compound 164]
0.1 to 1 |  |  | Cc1ccccc1C(C(=O)NC1CCCCC1)N(C(=O)Cc1cccs1)c1cccc(Br)c1 (centres unmarked) [Compound 146]
 |  | ≥ 100 | COc1ccc(C(C(=O)NC2CCCC2)N(C(=O)Cc2cccs2)c2cccc(F)c2)cc1OC (centres unmarked) [Compound 19]
0.1 to 1 |  |  | COC(=O)NCC(=O)N(c1ccc(F)cc1)C(C(=O)NC1CCCCC1)c1ccccc1C (centres unmarked) [Compound 353]
0.1 to 1 |  |  | Cc1ccccc1[C@@H](C(=O)NC1CCCCC1)N(C(=O)[C@@H]1CCCN1C(=O)OC(C)(C)C)c1cccc(F)c1 [Compound 343]
0.1 to 1 |  |  | Cc1ccccc1C(C(=O)NC1CCCCC1)N(C(=O)C1COc2ccccc2O1)c1cccc(F)c1 (centres unmarked) [Compound 125]
0.1 to 1 |  |  | Cc1ccccc1C(C(=O)NC1CCCCC1)N(C(=O)Cc1cccs1)c1cccc(C(F)(F)F)c1 (centres unmarked) [Compound 122]
 |  | 0.1 to 1 | Cc1ccccc1C(C(=O)NC1CCCCC1)N(C(=O)Cc1cccs1)c1ccccc1Br (centres unmarked) [Compound 98]
 |  | ≥ 100 | O=C(NC1CCCCC1)C(c1ccc(Br)cc1)N(C(=O)Cc1cccs1)c1cccc(F)c1 (centres unmarked) [Compound 68]
 |  | 0.1 to 1 | O=C(NC1CCCCC1)C(c1cccc(O)c1)N(C(=O)Cc1cccs1)c1cccc(F)c1 (centres unmarked) [Compound 91]
 |  | ≥ 100 | CC(=O)c1cccc(C(C(=O)NC2CCCCC2)N(C(=O)Cc2cccs2)c2cccc(F)c2)c1 (centres unmarked) [Compound 95]
 |  | 0.1 to 1 | Cc1ccc(C(C(=O)NC2CCCCC2)N(C(=O)Cc2cccs2)c2cccc(F)c2)cc1 (centres unmarked) [Compound 78]
0.1 to 1 |  |  | Cc1ccccc1C(C(=O)NC1CCCCC1)N(C(=O)CNC1CCC1)c1cccc(F)c1 (centres unmarked) [Compound 120]
0.1 to 1 |  |  | Cc1ccccc1C(C(=O)NC1CCCCC1)N(C(=O)Cc1cccs1)c1cccnc1 (centres unmarked) [Compound 111]
 |  | 0.1 to 1 | O=C(NC1CCCCC1)C(c1ccccc1F)N(C(=O)CNS(=O)(=O)c1ccccc1)c1ccccc1F (centres unmarked) [Compound 10]
0.1 to 1 |  |  | COC(=O)N1CCC[C@@H]1C(=O)N(c1cccc(F)c1)[C@H](C(=O)NC1CCCCC1)c1ccccc1C [Compound 355]
